The target in assay [1] is Glutamate receptor 3 (Rattus norvegicus, UniProt P19492).
In assay [2] the target is Glutamate receptor ionotropic, kainate 1 (Rattus norvegicus, UniProt P22756).
Assay [3] deals with Glutamate receptor ionotropic, NMDA 1 (Rattus norvegicus, UniProt P35439).

In BindingDB's records for doi:10.1002/chir.1172 (The Royal Danish School of Pharmacy, 2001) one finds Ki data, which are given here for 6 molecules.

Molecules are shown by their SMILES. pKi: −log10 of the molar value. Several values for one entry are separate records, joined by “and”; a condition that tells them apart may be missing. Equal entries are not always repeated.

Chain of Glutamate receptor ionotropic, kainate 1 (P22756 whole entry): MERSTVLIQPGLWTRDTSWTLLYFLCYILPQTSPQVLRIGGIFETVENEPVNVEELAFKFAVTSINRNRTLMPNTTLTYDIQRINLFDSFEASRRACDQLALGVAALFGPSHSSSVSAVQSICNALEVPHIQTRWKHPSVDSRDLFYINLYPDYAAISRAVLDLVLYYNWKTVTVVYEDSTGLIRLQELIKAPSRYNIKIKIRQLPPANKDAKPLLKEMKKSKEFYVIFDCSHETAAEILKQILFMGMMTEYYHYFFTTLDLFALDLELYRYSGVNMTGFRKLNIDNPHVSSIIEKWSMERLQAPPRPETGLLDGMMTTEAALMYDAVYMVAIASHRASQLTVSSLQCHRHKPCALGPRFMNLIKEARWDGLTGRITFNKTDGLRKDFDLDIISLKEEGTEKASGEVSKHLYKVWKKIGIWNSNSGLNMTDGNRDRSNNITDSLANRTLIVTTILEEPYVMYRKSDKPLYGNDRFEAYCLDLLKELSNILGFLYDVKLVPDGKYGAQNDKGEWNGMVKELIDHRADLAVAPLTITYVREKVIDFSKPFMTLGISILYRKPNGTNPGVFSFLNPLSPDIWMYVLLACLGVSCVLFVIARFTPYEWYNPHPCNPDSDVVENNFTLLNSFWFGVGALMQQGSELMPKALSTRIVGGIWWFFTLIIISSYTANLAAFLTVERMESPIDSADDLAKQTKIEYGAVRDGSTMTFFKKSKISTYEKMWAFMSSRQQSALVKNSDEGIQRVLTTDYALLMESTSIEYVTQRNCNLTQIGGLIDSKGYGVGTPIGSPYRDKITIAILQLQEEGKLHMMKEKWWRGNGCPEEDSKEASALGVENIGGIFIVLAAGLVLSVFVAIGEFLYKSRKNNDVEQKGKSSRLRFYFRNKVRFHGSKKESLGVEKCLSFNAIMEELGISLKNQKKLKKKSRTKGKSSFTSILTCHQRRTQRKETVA
Chain of Glutamate receptor 3 (P19492 whole entry): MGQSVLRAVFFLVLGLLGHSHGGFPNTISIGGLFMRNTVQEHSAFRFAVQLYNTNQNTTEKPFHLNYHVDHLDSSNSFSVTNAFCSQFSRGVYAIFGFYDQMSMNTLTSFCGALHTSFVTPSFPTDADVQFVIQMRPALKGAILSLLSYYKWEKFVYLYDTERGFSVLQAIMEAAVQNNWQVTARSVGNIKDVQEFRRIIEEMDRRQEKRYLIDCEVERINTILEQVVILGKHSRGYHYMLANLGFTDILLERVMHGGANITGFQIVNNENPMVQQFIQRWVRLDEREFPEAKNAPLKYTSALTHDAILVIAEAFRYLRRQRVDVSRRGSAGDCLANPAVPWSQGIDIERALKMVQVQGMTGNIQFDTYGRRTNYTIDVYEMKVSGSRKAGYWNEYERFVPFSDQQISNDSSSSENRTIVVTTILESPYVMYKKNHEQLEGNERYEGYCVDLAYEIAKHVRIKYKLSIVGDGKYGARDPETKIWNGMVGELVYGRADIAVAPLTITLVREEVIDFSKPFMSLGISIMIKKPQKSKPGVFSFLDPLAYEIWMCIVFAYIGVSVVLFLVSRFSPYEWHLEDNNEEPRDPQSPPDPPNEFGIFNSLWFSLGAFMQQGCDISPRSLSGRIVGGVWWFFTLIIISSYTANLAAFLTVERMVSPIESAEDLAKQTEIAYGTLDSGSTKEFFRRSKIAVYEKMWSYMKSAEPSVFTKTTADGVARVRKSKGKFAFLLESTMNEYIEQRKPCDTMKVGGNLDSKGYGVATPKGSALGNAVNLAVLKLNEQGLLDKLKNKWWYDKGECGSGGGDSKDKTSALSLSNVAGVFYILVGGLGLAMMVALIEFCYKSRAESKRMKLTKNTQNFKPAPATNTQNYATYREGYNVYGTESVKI

In the case of `Cc1onc(C(=O)O)c1CC(N)C(=O)O` [(S)-2-AMINO-3-(3-CARBOXY-5-METHYLISOXAZOL-4-YL)PROPIONIC ACID], the values for the pKi in assay [1], in assay [2] and in assay [3] were 7.70, 5.20 and under 5.00, respectively.
Take `Cc1onc(C(=O)O)c1C[C@@H](N)C(=O)O` [(R)-ACPA]: the pKi in assay [2] and in assay [3] was under 5.00 each time.
With `N[C@@H](Cc1conc1C(=O)O)C(=O)O` [Demethyl-ACPA], the pKi (in general, the Ki on a negative log10 scale, so that one unit is a factor of ten) in assay [1] was 7.41 and 7.00; in assay [3], under 5.00.
`C[C@H](NC(=O)CNC(=O)[C@@H](NC(=O)[C@H](Cc1ccccc1)NC(=O)CNC(=O)CNC(=O)[C@@H](N)Cc1ccccc1)[C@@H](C)O)C(=O)N[C@@H](CCCN=C(N)N)C(=O)N[C@@H](CCCCN)C(=O)N[C@@H](CO)C(=O)N[C@@H](C)C(=O)N[C@@H](CCCN=C(N)N)C(=O)N[C@@H](CCCCN)C(N)=O` [OFQ/N (1-11),[Tyr10]]: the pKi in assay [1] is 6.57; in assay [2], under 5.00; in assay [3], under 5.00.
Regarding `N[C@@H](Cc1conc1C(=O)O)C(=O)O` [(R)-Demethyl-ACPA], the pKi in assay [1] is 5.03; in assay [2] it was under 5.00; in assay [3] it was 5.35.
For `Cc1onc(C(=O)O)c1C[C@H](N)C(=O)O`, in that order: 7.60, 5.44 and under 5.00.
